Source: article PMC11053857, “Synthesis, In Vitro Biological Evaluation and Molecular Modeling of Benzimidazole-Based Pyrrole/Piperidine Hybrids Derivatives as Potential Anti-Alzheimer Agents” (Pharmaceuticals, 2024)
Like-named read-outs stand apart in the source and are kept apart here.

Experiments:
[1] = biological target: acetylcholinesterase (AChE) (Homo sapiens, UniProt P22303); test: biochemical
Protocol: The enzyme inhibition activities for acetylcholinesterase and butyrylcholinesterase were determined using the method of Ellman et al. with slight modifications. The 62.0 mM sodium phosphate buffer (pH 8.0, 880 μL) used contained 0.002 M of DTNB (5,5′-dithiobis-2-nitrobenzoic acid). AChE and BuChE solutions (40 μL) were added with the test compounds (40 μL) and kept at 25 °C for 10–15 min. The acetylthiocholine or butyrylthiocholine (40 μL) were added just before the initiation of the catalytic reaction. […] The inhibition reactions were repeated in triplicate with a Shimadzu spectrophotometer (Kyoto, Japan).

[2] = biological target: butyrylcholinesterase (BuChE) (Homo sapiens, UniProt P06276); test: biochemical; conditions: in vitro, 25 °C, pH 8.0, triplicate, standards listed separately for series 1–13 and 14–26
butyrylcholinesterase (BuChE), sequence (P06276 29-602): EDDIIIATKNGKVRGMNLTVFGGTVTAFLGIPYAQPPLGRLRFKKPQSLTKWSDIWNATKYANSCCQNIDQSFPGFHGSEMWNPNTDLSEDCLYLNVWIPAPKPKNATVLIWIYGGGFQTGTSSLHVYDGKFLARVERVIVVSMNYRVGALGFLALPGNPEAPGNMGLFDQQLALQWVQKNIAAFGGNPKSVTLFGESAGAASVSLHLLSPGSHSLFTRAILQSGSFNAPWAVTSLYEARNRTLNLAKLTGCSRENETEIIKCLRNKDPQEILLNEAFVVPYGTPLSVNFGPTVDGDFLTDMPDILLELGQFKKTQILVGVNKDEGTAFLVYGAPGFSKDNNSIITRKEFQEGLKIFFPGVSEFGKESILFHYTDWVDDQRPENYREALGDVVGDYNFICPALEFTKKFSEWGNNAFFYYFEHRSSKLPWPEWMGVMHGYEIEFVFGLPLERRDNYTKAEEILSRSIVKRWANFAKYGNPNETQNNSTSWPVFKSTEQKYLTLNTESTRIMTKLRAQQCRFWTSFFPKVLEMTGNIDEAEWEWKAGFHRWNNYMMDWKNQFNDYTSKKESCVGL
Protocol: The enzyme inhibition activities for acetylcholinesterase and butyrylcholinesterase were determined using the method of Ellman et al. with slight modifications. The 62.0 mM sodium phosphate buffer (pH 8.0, 880 μL) used contained 0.002 M of DTNB (5,5′-dithiobis-2-nitrobenzoic acid). AChE and BuChE solutions (40 μL) were added with the test compounds (40 μL) and kept at 25 °C for 10–15 min. The acetylthiocholine or butyrylthiocholine (40 μL) were added just before the initiation of the catalytic reaction. The enzymatic hydrolysis of the substrates encompassing the formation of yellow 5-thio-2-nitrobenzoate anion products was monitored at 412 nm (15 min). The inhibition reactions were repeated in triplicate with a Shimadzu spectrophotometer (Kyoto, Japan).

[3] = in vitro, 25 °C, pH 8.0, triplicate, standards listed separately for series 1–13 and 14–26, read-out: AChE Inhibition IC50 ± SEM
[4] = read-out: BuChE Inhibition IC50 ± SEM

acetylcholinesterase (AChE), sequence (P22303 32-614, species assumed): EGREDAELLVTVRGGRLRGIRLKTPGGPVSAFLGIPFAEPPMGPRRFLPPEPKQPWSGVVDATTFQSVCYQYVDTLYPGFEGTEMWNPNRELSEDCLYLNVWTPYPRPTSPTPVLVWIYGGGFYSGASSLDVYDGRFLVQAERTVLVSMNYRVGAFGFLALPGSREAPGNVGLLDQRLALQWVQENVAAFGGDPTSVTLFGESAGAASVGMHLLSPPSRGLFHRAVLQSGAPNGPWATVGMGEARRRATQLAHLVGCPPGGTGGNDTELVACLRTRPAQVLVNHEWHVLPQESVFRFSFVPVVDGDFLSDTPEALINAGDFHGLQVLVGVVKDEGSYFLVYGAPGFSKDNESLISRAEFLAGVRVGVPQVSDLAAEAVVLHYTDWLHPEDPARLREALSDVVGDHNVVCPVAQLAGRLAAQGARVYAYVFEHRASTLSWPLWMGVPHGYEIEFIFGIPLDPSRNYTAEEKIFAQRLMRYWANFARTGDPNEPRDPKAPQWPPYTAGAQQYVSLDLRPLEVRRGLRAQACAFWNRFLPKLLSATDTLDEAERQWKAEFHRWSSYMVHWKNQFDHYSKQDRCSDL

Row | Structure (SMILES) | IC50 [1, 3] [µM] | IC50 [2, 4] [µM] | IC50 [1] [µM] | IC50 ([2]; BuChE Inhibition IC50 ± SEM) [µM]
1 | COc1ccc2[nH]c(SC/C(=N/N=C/c3cc[nH]c3)c3ccc(C)cc3)nc2c1 [Compound 1, 2-(((E)-2-(((E)-(1H-pyrrol-3-yl)methylene)hydrazono)-2-(p-tolyl)ethyl)thio)-5-methoxy-1H-benzo[d]imidazole] | 27.11 ± 0.02 | 31.03 ± 0.11 |  | 
2 | COc1ccc(/C(CSc2nc3cc(OC)ccc3[nH]2)=N\N=C\c2cc[nH]c2)cc1 [Compound 2, 2-(((E)-2-(((E)-(1H-pyrrol-3-yl)methylene)hydrazono)-2-(4-methoxyphenyl)ethyl)thio)-5-methoxy-1H-benzo[d]imidazole] | 20.04 ± 0.15 | 23.22 ± 0.15 |  | 
3 | COc1ccc2[nH]c(SC/C(=N/N=C/c3cc[nH]c3)c3ccc(-c4ccccc4)cc3)nc2c1 [Compound 3, 2-(((E)-2-(((E)-(1H-pyrrol-3-yl)methylene)hydrazono)-2-([1,1′-biphenyl]-4-yl)ethyl)thio)-5-methoxy-1H-benzo[d]imidazole] | 30.11 ± 0.23 | 34.06 ± 0.14 |  | 
4 | COc1ccc2[nH]c(SC/C(=N/N=C/c3cc[nH]c3)c3ccccc3OC)nc2c1 [Compound 4, 2-(((E)-2-(((E)-(1H-pyrrol-3-yl)methylene)hydrazono)-2-(2-methoxyphenyl)ethyl)thio)-5-methoxy-1H-benzo[d]imidazole] | 26.2 ± 0.41 | 29.2 ± 0.8 |  | 
5 | C(=N\N=C(\CSc1nc2ccccc2[nH]1)c1ccc(-c2ccccc2)cc1)/c1cc[nH]c1 [Compound 5, 2-(((E)-2-(((E)-(1H-pyrrol-3-yl)methylene)hydrazono)-2-([1,1′-biphenyl]-4-yl)ethyl)thio)-1H-benzo[d]imidazole] | 34.16 ± 0.03 | 37.21 ± 0.23 |  | 
6 | O=[N+]([O-])c1cccc(/C(CSc2nc3ccccc3[nH]2)=N\N=C\c2cc[nH]c2)c1 [Compound 6, 2-(((E)-2-(((E)-(1H-pyrrol-3-yl)methylene)hydrazono)-2-(3-nitrophenyl)ethyl)thio)-1H-benzo[d]imidazole] | 28.12 ± 0.09 | 32.14 ± 0.21 |  | 
7 | Cc1ccc(/C(CSc2nc3ccccc3[nH]2)=N\N=C\c2cc[nH]c2)cc1 [Compound 7, 2-(((E)-2-(((E)-(1H-pyrrol-3-yl)methylene)hydrazono)-2-(p-tolyl)ethyl)thio)-1H-benzo[d]imidazole] | 36 ± 0.41 | 39.55 ± 0.03 |  | 
8 | COc1ccccc1/C(CSc1nc2ccccc2[nH]1)=N\N=C\c1cc[nH]c1 [Compound 8, 2-(((E)-2-(((E)-(1H-pyrrol-3-yl)methylene)hydrazono)-2-(2-methoxyphenyl)ethyl)thio)-1H-benzo[d]imidazole] | 21.03 ± 0.11 | 25.1 ± 0.44 |  | 
9 | COc1ccc(/C(CSc2nc3ccccc3[nH]2)=N\N=C\c2cc[nH]c2)cc1 [Compound 9, 2-(((E)-2-(((E)-(1H-pyrrol-3-yl)methylene)hydrazono)-2-(4-methoxyphenyl)ethyl)thio)-1H-benzo[d]imidazole] | 24.16 ± 0.21 | 28.01 ± 0.13 |  | 
10 | O=[N+]([O-])c1cccc(/C(CSc2nc3cc([N+](=O)[O-])ccc3[nH]2)=N\N=C\c2cc[nH]c2)c1 [Compound 10, 2-(((E)-2-(((E)-(1H-pyrrol-3-yl)methylene)hydrazono)-2-(3-nitrophenyl)ethyl)thio)-5-nitro-1H-benzo[d]imidazole] |  |  | 19.4 ± 0.6 | 21.6 ± 0.61
11 | O=[N+]([O-])c1ccc2[nH]c(SC/C(=N/N=C/c3cc[nH]c3)c3ccc(-c4ccccc4)cc3)nc2c1 [Compound 11, 2-(((E)-2-(((E)-(1H-pyrrol-3-yl)methylene)hydrazono)-2-([1,1′-biphenyl]-4-yl)ethyl)thio)-5-nitro-1H-benzo[d]imidazole] | 32.13 ± 0.18 | 37.76 ± 0.08 |  | 
12 | COc1ccc(/C(CSc2nc3cc([N+](=O)[O-])ccc3[nH]2)=N\N=C\c2cc[nH]c2)cc1 [Compound 12] | 23.1 ± 0.35 | 27.35 ± 0.06 |  | 
13 | Cc1ccc(/C(CSc2nc3cc([N+](=O)[O-])ccc3[nH]2)=N\N=C\c2cc[nH]c2)cc1 [Compound 13, 2-(((E)-2-(((E)-(1H-pyrrol-3-yl)methylene)hydrazono)-2-(p-tolyl)ethyl)thio)-5-nitro-1H-benzo[d]imidazole] | 27.08 ± 0.25 | 33.3 ± 0.42 |  | 
14 | COc1ccc2[nH]c(SC/C(=N/N=C/N3CCCCC3)c3ccc(-c4ccccc4)cc3)nc2c1 [Compound 14, 2-(((E)-2-([1,1′-biphenyl]-4-yl)-2-(((E)-piperidin-1-ylmethylene)hydrazono)ethyl)thio)-5-methoxy-1H-benzo[d]imidazole] | 42.01 ± 0.02 | 47.03 ± 0.15 |  | 
15 | COc1ccc2[nH]c(SC/C(=N/N=C/N3CCCCC3)c3ccccc3OC)nc2c1 [Compound 15, 5-methoxy-2-(((E)-2-(2-methoxyphenyl)-2-(((E)-piperidin-1-ylmethylene)hydrazono)ethyl)thio)-1H-benzo[d]imidazole] | 26.03 ± 0.15 | 29.11 ± 0.14 |  | 
16 | COc1ccc(/C(CSc2nc3cc(OC)ccc3[nH]2)=N\N=C\N2CCCCC2)cc1 [Compound 16, 5-methoxy-2-(((E)-2-(4-methoxyphenyl)-2-(((E)-piperidin-1ylmethylene) hydrazono)ethyl)thio)-1H-benzo[d]imidazole] | 28.13 ± 0.23 | 30.01 ± 0.23 |  | 
17 | COc1ccc2[nH]c(SC/C(=N/N=C/N3CCCCC3)c3cccc([N+](=O)[O-])c3)nc2c1 [Compound 17, 5-methoxy-2-(((E)-2-(3-nitrophenyl)-2-(((E)-piperidin-1-ylmethylene)hydrazono)ethyl)thio)-1H-benzo[d]imidazole] | 23.1 ± 0.41 | 27.3 ± 0.5 |  | 
18 | COc1ccc2[nH]c(SC/C(=N/N=C/N3CCCCC3)c3ccc(C)cc3)nc2c1 [Compound 18, 5-methoxy-2-(((E)-2-(((E)-piperidin-1-ylmethylene)hydrazono)-2-(p-tolyl)ethyl)thio)-1H-benzo[d]imidazole] | 36.15 ± 0.03 | 39.11 ± 0.13 |  | 
19 | Cc1ccc(/C(CSc2nc3ccccc3[nH]2)=N\N=C\N2CCCCC2)cc1 [Compound 19, 2-(((E)-2-(((E)-piperidin-1-ylmethylene)hydrazono)-2-(p-tolyl)ethyl)thio)-1H-benzo[d]imidazole] | 33.19 ± 0.09 | 36.22 ± 0.11 |  | 
20 | O=[N+]([O-])c1cccc(/C(CSc2nc3ccccc3[nH]2)=N\N=C\N2CCCCC2)c1 [Compound 20, 2-(((E)-2-(3-nitrophenyl)-2-(((E)-piperidin-1-ylmethylene)hydrazono)ethyl)thio)-1H-benzo[d]imidazole] | 29.04 ± 0.22 | 31.25 ± 0.03 |  | 
21 | COc1ccccc1/C(CSc1nc2ccccc2[nH]1)=N\N=C\N1CCCCC1 [Compound 21, 2-(((E)-2-(2-methoxyphenyl)-2-(((E)-piperidin-1-ylmethylene)hydrazono)ethyl)thio)-1H-benzo[d]imidazole] | 30.1 ± 0.41 | 38.02 ± 0.04 |  | 
22 | COc1ccc(/C(CSc2nc3ccccc3[nH]2)=N\N=C\N2CCCCC2)cc1 [Compound 22, 2-(((E)-2-(4-methoxyphenyl)-2-(((E)-piperidin-1-ylmethylene)hydrazono)ethyl)thio)-1H-benzo[d]imidazole] | 34.02 ± 0.11 | 34.31 ± 0.12 |  | 
23 | O=[N+]([O-])c1ccc2[nH]c(SC/C(=N/N=C/N3CCCCC3)c3ccc(-c4ccccc4)cc3)nc2c1 [Compound 23] | 38.2 ± 0.4 | 42.27 ± 0.41 |  | 
24 | COc1ccc(/C(CSc2nc3cc([N+](=O)[O-])ccc3[nH]2)=N\N=C\N2CCCCC2)cc1 [Compound 24, 2-(((E)-2-(4-methoxyphenyl)-2-(((E)-piperidin-1-ylmethylene)hydrazono)ethyl)thio)-5-nitro-1H-benzo[d]imidazole] | 32.05 ± 0.14 | 39.66 ± 0.24 |  | 
25 | Cc1ccc(/C(CSc2nc3cc([N+](=O)[O-])ccc3[nH]2)=N\N=C\N2CCCCC2)cc1 [Compound 25, 5-nitro-2-(((E)-2-(((E)-piperidin-1-ylmethylene)hydrazono)-2-(p-tolyl)ethyl)thio)-1H-benzo[d]imidazole] | 35.01 ± 0.25 | 32.25 ± 0.12 |  | 
